Measurements published in US7615361B2, “Toxicity screening methods” (Ceetox, Inc., priority 2006, dated 2009).

What was measured:
H4IIE cells = assay: MTT reduction; type: cell-based, rat; details: rat, 24 h
Outline: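 Rat hepatoma H4IIE cells exposed to compound prepared in complete culture medium, with tetrazolium dye (MTT) reduction used as a mitochondrial-function read-out of cytotoxicity. Values are means of each exposure group (n=3-7).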

[1] = Cell number (propidium iodide); type: cell-based; details: human, read-out: Cell Number TC50; for CC50 at 72 h: SK-MEL28 cells, SK-MEL28, 72 HR, run #2
Experimental: Cell Proliferation: Cell proliferation in each well was measured with propidium iodide (PI). This specific nucleic acid binding dye fluoresces when intercalated within the nucleic acids. The 15 nm shift enhances PI fluorescence approximately 20 times while the excitation maxima are shifted 30-40 nm. During method development experiments, it was determined that Triton-X-100 was the best solution to permeabilize the H4IIE cells thereby allowing the PI access to intracellular RNA and DNA. Fluorescence was measured using a Packard Fusion plate reader or equivalent reader at 540 nm excitation and 610 nm emission.
Cell Proliferation: After incubation, the test compound was removed and Triton X-100 solution containing propidium iodide is added. The plate was incubated and read on a fluorescent plate reader. Data was collected as relative fluorescent units (RFU). The blank was subtracted from the final well RFU. It represents the average of the first and last columns which contain no cells on that particular plate. The controls are untreated cells allowed to grow on the same plate. The compounds are represented by several separate RFU data points for each of the tested concentrations. The percent change relative to controls was calculated by dividing the average RFU by the control cell RFU and multiplying by 100.
Dosing solutions were prepared in complete culture medium.

[2] = MemTox membrane leakage (AK / α-GST); type: cell-based; details: rat, NRK cells, read-out: GST TC50
Experimental: Membrane Leakage (α-Glutathione S-transferase and/or Adenylate Kinase): The presence of Adenylate Kinase (AK) or α-Glutathione S-transferase (α-GST), both enzyme leakage markers, was measured in the culture medium using an activity assay for Adenylate Kinase and/or an ELISA assay for α-GST. At the end of the exposure period, the medium covering the cells in each well was removed and placed into new 96-well plates with appropriate labeling. […] Luminescence (AK) values were measured with a Packard Fusion or equivalent plate reader, and absorbance (α-GST) values were measured with a Packard SpectraCount™ or equivalent reader at 450 nm and reference absorbance at 650 nm.
Membrane Leakage (α-Glutathione S-transferase and/or Adenylate Kinase): Leakage of Adenylate Kinase or α-GST from the cell into the culture medium was determined by collecting the culture medium at the end of the exposure period. Thus, the values measured represent total enzyme leakage lost over the exposure period. The control for 100% dead or maximum enzyme release was based on cells treated with 1 mM digitonin at the time of dosing. Percent dead cells relative to digitonin treated cells was determined and then subtracted from 100% to yield the percent live cells.
(§1) The third experiment was done to evaluate the specificity and selectivity of the test compound in another non-tumor cell that was derived from normal rat kidney tissue. In this experiment the test compound has no effect on cell number of acute cell death up to the 500 dilution after 6 and 24 hr of exposure (FIG. 76C and 77C). Significant effects were observed on mitochondrial markers at dilutions that dropped pH to 3.7. The bar graph in FIG. 82 summarizes these effects. […] In contrast the rat tumor cell line was sensitive to the test compound and cell death occurred at the 500 dilution and could not be attributed to low pH.

MTT reduction = type: cell-based; details: rat, NRK cells, read-out: MTT TC50
Text: Tetrazolium Dye Reduction: 3-[4,5-dimethylthiazol-2-yl]
as §1

Intracellular ATP levels = type: cell-based; details: rat, NRK cells, read-out: ATP TC50
Experimental: Intracellular ATP Levels: Cellular Adenosine triphosphate (ATP) was determined with an assay based on a reaction between ATP+D-luciferin+oxygen catalyzed by luciferase to yield Oxyluciferin+AMP+PPi+CO2+light. The emitted light is proportional to the amount of ATP present. […] In addition, a unique cell lysis reagent inhibits endogenous ATPases and therefore stabilizes cellular ATP by preventing its degradation to ADP. ATP is present in all-living cells and declines rapidly upon cell death. In addition, this assay in combination with the MTT assay provides an indicator of mitochondrial activity and energy status of the cell.
Plates were analyzed immediately or stored at −20° C. until needed. On the day of analysis, the plates were thawed and calibration curve prepared with ATP in the same liquid matrix as samples. ATP was quantified by adding ATP substrate solution and then reading luminescence on a Packard Fusion Luminescence or equivalent plate reader.
Intracellular ATP Levels: ATP levels in treated cells could be determined by using the regression coefficients obtained from the linear regression analysis of the calibration curve. Thus, values could be expressed as pmoles ATP/million cells. Background corrected luminescence was used to determine percent change relative to controls by dividing treated values by control values and multiplying by 100.
as §1

P-glycoprotein (PgP) = P-glycoprotein (PgP) (Homo sapiens, UniProt P08183); assay: P-glycoprotein (PgP) binding: MTT with and without cyclosporin A, human hepatocytes; type: cell-based; set-up: SK-MEL28, human hepatocytes, HUVEC, C32, and NHEM cells were used as the test systems; endogenous in cells; details: for % Control (Compound + CSA) / % Control (Compound): human hepatocytes 24 HR, MTT; for % Control (Compound + CSA): with cyclosporin A; for % Control (Compound): without CSA; for % Difference: human hepatocytes, 24 HR
P-glycoprotein (PgP), sequence (P08183 whole entry): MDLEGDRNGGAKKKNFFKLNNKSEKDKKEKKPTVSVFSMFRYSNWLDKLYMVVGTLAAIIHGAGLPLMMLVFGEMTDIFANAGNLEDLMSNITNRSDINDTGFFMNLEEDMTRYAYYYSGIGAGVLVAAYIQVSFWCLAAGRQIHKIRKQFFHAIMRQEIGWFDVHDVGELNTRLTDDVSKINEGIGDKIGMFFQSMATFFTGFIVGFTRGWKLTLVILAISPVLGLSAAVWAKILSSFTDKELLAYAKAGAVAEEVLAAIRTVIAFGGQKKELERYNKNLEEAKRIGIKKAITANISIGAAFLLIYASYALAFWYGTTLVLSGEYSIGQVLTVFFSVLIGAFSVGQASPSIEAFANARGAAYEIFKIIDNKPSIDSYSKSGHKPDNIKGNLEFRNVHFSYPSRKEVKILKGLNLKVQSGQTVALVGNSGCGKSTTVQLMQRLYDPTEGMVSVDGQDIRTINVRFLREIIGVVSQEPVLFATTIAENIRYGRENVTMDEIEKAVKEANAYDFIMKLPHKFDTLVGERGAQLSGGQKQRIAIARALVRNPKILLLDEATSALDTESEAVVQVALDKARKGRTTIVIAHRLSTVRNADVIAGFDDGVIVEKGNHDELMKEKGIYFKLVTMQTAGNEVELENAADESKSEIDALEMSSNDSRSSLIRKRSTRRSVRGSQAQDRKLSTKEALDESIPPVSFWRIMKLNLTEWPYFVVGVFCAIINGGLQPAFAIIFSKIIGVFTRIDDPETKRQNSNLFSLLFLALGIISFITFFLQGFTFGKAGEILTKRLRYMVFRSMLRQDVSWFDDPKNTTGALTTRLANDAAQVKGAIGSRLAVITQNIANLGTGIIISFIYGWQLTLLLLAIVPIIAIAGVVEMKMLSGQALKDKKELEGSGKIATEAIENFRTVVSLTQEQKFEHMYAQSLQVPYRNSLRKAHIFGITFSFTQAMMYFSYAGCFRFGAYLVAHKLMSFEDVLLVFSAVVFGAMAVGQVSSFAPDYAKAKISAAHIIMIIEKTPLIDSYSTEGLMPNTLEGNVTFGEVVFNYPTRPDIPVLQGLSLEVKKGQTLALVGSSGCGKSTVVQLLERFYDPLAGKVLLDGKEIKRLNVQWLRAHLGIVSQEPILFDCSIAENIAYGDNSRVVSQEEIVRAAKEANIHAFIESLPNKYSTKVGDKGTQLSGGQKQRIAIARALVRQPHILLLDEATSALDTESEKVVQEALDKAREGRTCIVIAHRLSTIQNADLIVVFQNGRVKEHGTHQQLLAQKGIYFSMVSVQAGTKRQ
Experimental: P-glycoprotein (PgP) transport proteins are expressed in the bile canalicular membrane of normal liver. However, in neoplastic cells it is not uncommon to have expression of this transporter system in the plasma membrane. The H4IIE cells have a very active efflux pump activity in the plasma membrane. As a result, compounds that are substrates for this transporter may not accumulate inside the cell. The existence of these transporters was evaluated with the Calcein-AM assay and with known substrates of PgP. […] Therefore, compounds that show negative toxicity should be evaluated as potential substrates of PgP and compared to data shown in the PgP table of this example.
The cell supernatant or the cells themselves were harvested for biochemical analysis. General cytotoxicity was evaluated by monitoring membrane integrity, mitochondrial function, cell proliferation, oxidative stress, and apoptosis. In addition to monitoring biochemical changes essential for cell health, interaction with P-glycoprotein (PgP) and solubility were also assessed. The means of each exposure group (n=3-7) were calculated for each assay performed. Intra assay variation well to well was typically less than 10% with plate to plate variation typically less than 20%.

SMILES	CC50 (H4IIE cells) [µM]	MTT affected less in liver cells compared to myocytes (H4IIE cells)	CC50 at 72 h [1] [µM]	CC50 at 6 h [2] [µM]	CC50 at 24 h [2] [µM]	CC50 at 6 h (MTT reduction) [µM]	CC50 at 24 h (MTT reduction) [µM]	CC50 at 6 h (Intracellular ATP levels) [µM]	CC50 at 24 h (Intracellular ATP levels) [µM]	% Control (Compound + CSA) (P-glycoprotein (PgP)) [%]	% Control (Compound) (P-glycoprotein (PgP)) [%]	% Difference (P-glycoprotein (PgP)) [%]	CC50 at 24 h ([1]; HUVEC) [µM]
COc1cccc2c1C(=O)c1c(O)c3c(c(O)c1C2=O)C[C@@](O)(C(=O)CO)C[C@@H]3O[C@H]1C[C@H](N)[C@H](O)[C@H](C)O1 [ADRIAMYCIN, Adriamycin]	26	approximately 13 fold											
C=C(C)[C@H]1Cc2c(ccc3c2O[C@@H]2COc4cc(OC)c(OC)cc4[C@@H]2C3=O)O1 [ROTENONE, Rotenone]			1	10	10	10	10	10	10	60.9	97.1	37.2	
CC[C@@]1(O)C(=O)OCc2c1cc1n(c2=O)Cc2cc3ccccc3nc2-1 [CAMPTOTHECIN, Camptothecin]			0.1	300	100	300	100	300	9	65.8	88.5	25.7	85
